# From patent US20020045764A1, “Tubulin binding compounds (COBRA)” (Parker Hughes Institute, priority 1998, published 2002)
# Columns and labels:
# [1] = system: zebrafish (ZF) (Danio rerio) embryos; assay: Zebrafish embryo model, cell division and development; type: in vivo
# Description: ZF eggs were removed from their chorions by mild digestion in 1% Trypsin-EDTA (Sigma) for 10 minutes at 28.5° C. (Standard temperature—ST), washed three times in “egg water”^15-16 and twice in “embryonic medium” (EM)^15-16. The dechorionated two-cell stage cleaving eggs/embryos were transferred to the 24-well plastic cell culture plates (Costar, City, State) filled with EM or Hank's Balanced Salt Saline (HBSS, Gibco, City, State). Dechorionated embryos (10-12 per well) were exposed to the drugs at a constant ST for 0.5-24 hours. The final volume of the media in each well was 500 μL. All reference as well as test compounds were used at concentrations ranging from 10 μM to 4 mM. The title compounds were dissolved in DMSO and then diluted serially with the incubation medium. The final concentration of DMSO in the wells was 1.2% (with the exception of the etoposide treatment where it was 3%). The sham-treated control embryos were incubated in EM or HBSS in the presence of 1.2% (or 3%) DMSO.
# Observations of cell division and development of the ZF embryos were carried out using a SMZ-10A stereo microscope (Nicon, City, State), once every 30 minutes within the first 3 hours of incubation and at 6, 12 and 24 hours, as well. […] The stereo microscope was fitted with a specially designed transparent heating tray in order to keep embryos at ST during observations. Pictures of the embryos were taken with a H-III Photomicrographic System (Nicon) using Ektachrome 64X film (Kodak, Rochester, N.Y.).
# Nalm-6 leukemia cells = assay: Transmission electron microscopy; type: cell-based, human; parameters: dose or concentration left out as unconfirmed
# human tumor cell lines = assay: MTT assays, panel of human tumor cell lines (overall statement); type: cell-based; details: 0.1 to 250 μM
# Description: (§1) The antiproliferative activity of […] and the control mono-THF containing compounds 8.2, 8.3, and 8.4 was examined against a panel of 5 different human tumor cell lines using standard MTT (3-[4,5-dimethylthiazol-2-yl]-2,5-diphenyl tetrazolium bromide) assays^18 (Boehringer Mannheim Corp., Indianapolis, Ind.).
# Briefly, exponentially growing brain tumor cells were seeded into a 96-well plate at a density of 2.5×10^4 cells/well and incubated for 36 hours at 37° C. prior to drug exposure. On the day of treatment, culture medium was carefully aspirated from the wells and replaced with fresh medium containing the test or control compounds at concentrations ranging from 0.1 to 250 μM. Triplicate wells were used for each treatment. The cells were incubated with the various compounds for 24-36 hours at 37° C. in a humidified 5% CO2 atmosphere. To each well, 10 μl of MTT (0.5 mg/ml final concentration) was added and the plates were incubated at 37° C. for 4 hours to allow MTT to form formazan crystals by reacting with metabolically active cells . […] The absorbence of each well was measured in a microplate reader (Labsystems) at 540 nm and a reference wavelength of 690 nm. […] The percent survival was calculated using the formula: % survival=Live cell number[test]×100/Live cell number[control]. […]
# U373 brain tumor cells [2] = assay: Two-photon confocal laser scanning microscopy, DiA-labeled cells; type: cell-based, human; details: for cell morphology: U373, 100 μM
# Description: In some experiments, COBRA-1 treated brain tumor cells were labeled with the membrane dye DiA and imaged using multiphoton microscopy. The individual tumor cells were imaged 1 hour before adding 100 μM COBRA- 1. The total imaging period was 3 hours.
# U373 brain tumor cells were labeled with the membrane dye DiA and imaged using two-photon microscopy.
# Arrows denote membrane ruffles formed in the direction that the cell is crawling. Arrowheads denote the trailing edge or the edge where the cell is retracting. The cell was imaged 1 hour before adding 100 μM DDE261 (FIG. 9A). […] The cell continued to shrink throughout the 3 hour imaging period (FIGS. 9E and 9F). The white material in the color photographs is the dye, DiA. The Scale Bar denotes 20 microns.
# Bovine brain tubulin = biological target: T1, Bovine brain tubulin (Bos taurus, UniProt P81947+Q6B856); assay: Tubulin turbidity assay (GTP-induced tubulin polymerization); type: biochemical; details: for effect on GTP-dependent tubulin polymerization (turbidity): 1 mg/ml tubulin, 1 mM GTP, 37° C., OD 350 nm
# T1 construct: purchased Sigma, St. Louis, Mo; host or cells: bovine brain (tissue-purified)
# T1 sequence (P81947 whole entry): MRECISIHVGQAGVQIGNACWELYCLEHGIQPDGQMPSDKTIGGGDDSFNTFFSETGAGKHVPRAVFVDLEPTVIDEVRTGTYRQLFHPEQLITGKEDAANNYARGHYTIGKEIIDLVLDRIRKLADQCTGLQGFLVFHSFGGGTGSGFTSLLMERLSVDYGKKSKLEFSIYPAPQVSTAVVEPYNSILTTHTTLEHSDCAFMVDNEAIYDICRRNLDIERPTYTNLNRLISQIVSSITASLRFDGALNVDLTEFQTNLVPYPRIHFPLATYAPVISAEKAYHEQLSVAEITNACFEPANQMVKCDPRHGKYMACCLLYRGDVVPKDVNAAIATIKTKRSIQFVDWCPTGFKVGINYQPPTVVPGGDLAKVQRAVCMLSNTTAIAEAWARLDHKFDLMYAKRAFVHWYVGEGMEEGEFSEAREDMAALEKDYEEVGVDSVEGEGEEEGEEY
# T1 sequence (Q6B856 whole entry): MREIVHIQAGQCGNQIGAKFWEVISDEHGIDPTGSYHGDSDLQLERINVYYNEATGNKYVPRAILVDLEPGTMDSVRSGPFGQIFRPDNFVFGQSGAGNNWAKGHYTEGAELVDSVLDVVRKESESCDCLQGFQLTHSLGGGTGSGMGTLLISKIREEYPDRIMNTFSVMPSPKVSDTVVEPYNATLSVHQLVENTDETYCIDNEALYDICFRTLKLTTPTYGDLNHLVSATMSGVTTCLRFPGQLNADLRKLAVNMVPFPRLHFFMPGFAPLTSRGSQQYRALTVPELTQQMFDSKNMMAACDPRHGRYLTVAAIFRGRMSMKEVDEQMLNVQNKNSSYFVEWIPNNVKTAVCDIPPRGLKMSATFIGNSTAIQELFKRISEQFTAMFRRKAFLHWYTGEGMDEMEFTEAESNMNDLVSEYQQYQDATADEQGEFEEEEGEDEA
# Description: Bovine brain tubulin (Sigma, St. Louis, Mo.) was used in standard turbidity assays to test the effects of compounds COBRA-1 and COBRA-2 as well as control compounds on GTP-induced tubulin polymerization. Compounds (in 1% DMSO) were added to tubulin (1 mg/ml, 0.1M MES, 1 mM EGTA, 0.5 mM MgCl2, 0.1 mM EDTA, 2.5M glycerol, 1 μg/ml leupeptin, 1 μg/ml aprotinin, pH 6.5) followed by stimulation of polymerization with 1 mM GTP at 2 minutes and 1 mM taxol at 30 minutes. Optical density was measured using a Becton Dickinson UV spectrophotometer (350 nm) using a thermostated cuvette holder to keep the reaction at 37° C. Readings obtained from the spectro-photometer were standardized by subtracting the background absorbance of the compound in water from the sample reading following drug addition.
# To test the latitude of the structure at the opposite end of the molecule from the long chain (head region), three new COBRA compounds were synthesized according to the schemes shown below: COBRA-3, COBRA-4, and COBRA-5. Each of these compounds was then tested for tubulin depolymerization activity, using the tubidity assay described in the Examples above.
# Each of these compounds was assayed for effects on GTP-dependent tubulin polymerization, using the methods described above.
# MDA-MB-231 = assay: MTT assay; type: cell-based, human; details: 24-36 hours
# Description: as §1
# (§2) Briefly, exponentially growing brain tumor cells were seeded into a 96-well plate at a density of 2.5×10^4 cells/well and incubated for 36 hours at 37° C. prior to drug exposure. On the day of treatment, culture medium was carefully aspirated from the wells and replaced with fresh medium containing the test or control compounds at concentrations ranging from 0.1 to 250 μM. Triplicate wells were used for each treatment. The cells were incubated with the various compounds for 24-36 hours at 37° C. in a humidified 5% CO2 atmosphere. To each well, 10 μl of MTT (0.5 mg/ml final concentration) was added and the plates were incubated at 37° C. for 4 hours to allow MTT to form formazan crystals by reacting with metabolically active cells . The formazan crystals were solubilized overnight at 37° C. in a solution containing 10% SDS in 0.01 M HCl. The absorbence of each well was measured in a microplate reader (Labsystems) at 540 nm and a reference wavelength of 690 nm. To translate the OD 540 values into the number of live cells in each well, the OD540 values were compared to those on standard OD540-versus-cell number curves generated for each cell line. The percent survival was calculated using the formula: % survival=Live cell number[test]×100/Live cell number[control].
# (§3) IC50 values were calculated by non-linear regression analysis using an Graphpad Prism software version 2.0 (Graphpad Software, Inc., San Diego, Calif.).
# (§4) The following human cancer cell lines were used in the present study: BT-20, breast cancer; MDA-MB-231, breast cancer; PC3, prostate cancer; U87 and U373, glioblastoma; NALM-6, B-lineage acute lymphoblastic leukemia. These cell lines were obtained from American Type Culture Collection (Manassas, Va.) and maintained as continuous cell lines in Dulbecco's modified Eagles's medium supplemented with 10% fetal bovine serum and antibiotics.
# PC-3 = assay: MTT assay; type: cell-based, human; details: 24-36 hours
# Description: as §1, §2, §3, §4
# U87 = assay: MTT assay; type: cell-based, human; details: 24-36 hours
# Description: as §1, §2, §3, §4
# NALM-6 = assay: MTT assay; type: cell-based, human; details: 24-36 hours
# Description: as §1, §2, §3, §4
# SQ20B = assay: MTT assay; type: cell-based, human; details: 24-36 hours
# Description: as §1, §2, §3
# U373 brain tumor cells [3] = assay: Cytotoxicity by confocal microscopy (tubulin immunofluorescence); type: cell-based, human
# Description: (§5) Cells were incubated at 37° C. for the indicated time periods with the title compounds. At the end of the incubation, cells were washed twice with PBS and fixed in 2% paraformaldehyde. The cells were permeabilized and non-specific binding sites were blocked with 2.5% BSA in PBS containing 0.1% Triton X-100 for 30 minutes. Tubulin expression was examined by immunofluorescence using a monoclonal antibody against α-tubulin (Sigma Chemical Co, St. Louis, Mo.) at a dilution of 1:1000 and an anti-mouse IgG conjugated to FITC. Cells were washed in PBS and counterstained with toto-3 (Molecular Probes Inc., Eugene, Oreg.) for 10 minutes at a dilution of 1:1000. Cells were washed again with PBS and the coverslips were mounted with Vectashield (Vector Labs, Burlingame, Calif.) and viewed with a confocal microscope (Bio-Rad MRC 1024) mounted in a Nikon Labhophot upright microscope. Digital images were saved on a Jaz disk and processed with Adobe Photoshop software (Adobe Systems, Mountain View, Calif.).
# (§6) The ultrastructural changes in human breast and glioblastoma cancer cells treated with COBRA-1 or COBRA-2 were examined by confocal microscopy and by transmission electron microscopy, using methods previously reported^19.
# [4] = system: BT-20 breast cancer cells; assay: as above; type: cell-based, human
# Description: as §5, §6
# human cell lines = assay: Anti-cancer activity against human cell lines; type: cell-based
structure (smiles),measurement,setting,value
CCCCCCCCCCCC[C@@H](O)[C@H]1CC[C@H](CO)O1 [COBRA-1],effect on ZF embryo,"[1]; 200 μM, 30 minutes",start of cell fusion
same,effect on ZF embryo,"[1]; 200 μM, 60 minutes","cell division blockade, total fusion and developmental arrest"
same,effect on ZF embryo,"[1]; 400 μM, 30 minutes",deterioration of cell division and start of cell fusion
same,effect on ZF embryo,"[1]; 400 μM, 60 minutes","cell division blockade, total fusion and developmental arrest"
same,effect on two-cell stage ZF embryos,[1]; 200 and 400 μM,"developed normally for 30 minutes, up to the 8-cell stage, and then showed an immediate arrest of proliferation followed by cell fusion"
same,ultrastructural changes,Nalm-6 leukemia cells,"nuclear fragmentation, chromatin condensation, and formation of multiple autophagosomes, consistent with apoptosis"
same,inhibition of all cell lines,human tumor cell lines,inhibited by COBRA-1 in a dose-dependent fashion
same,cell morphology,U373 brain tumor cells [2]; after 1 hour,only trailing edges are present
same,cell morphology,U373 brain tumor cells [2]; within 40 minutes of drug addition,only one membrane ruffle is still evident
same,onset of induced apoptosis after exposure,U373 brain tumor cells [2]; tumor cells (U373),approximately 1 hour
same,time to total destruction,U373 brain tumor cells [2]; tumor cells (U373),≤ 24 h
same,effect on GTP-dependent tubulin polymerization (turbidity),Bovine brain tubulin,caused partial depolymerization of tubulin and inhibited its polymerization in the presence of GTP
same,IC50,MDA-MB-231,77 µM
same,IC50,PC-3,171 µM
same,IC50,U87,107 µM
same,IC50,NALM-6,49 µM
same,IC50,SQ20B,140 µM
same,cell morphology / microtubules,"U373 brain tumor cells [3]; U373, 100 μM",induces abnormal tubulin structures
same,cell morphology / microtubules,"U373 brain tumor cells [3]; U373, 200 μM",cell death with nuclear fragmentation and complete loss of microtubule formation
same,cell morphology / microtubules,"[4]; BT-20, 100 μM, 24 hours",the cells shrink and the microtubules become less organized
same,cell morphology / microtubules,"[4]; BT-20, 200 μM",cell death with nuclear fragmentation and complete loss of microtubule formation
"CCCCCCCCCCCCSCC(NC(C)=O)C(=O)CCl (stereo not drawn) [COBRA-5, N-Ac-S-dodecyl-Cys Chloromethyl Ketone]",anti-cancer activity against human cell lines,human cell lines,very potent anti-cancer activity
same,effect on GTP-dependent tubulin polymerization (turbidity),Bovine brain tubulin,caused partial depolymerization of tubulin and completely inhibited its polymerization in the presence of GTP
same,IC90,"Bovine brain tubulin; stated in the tubulin polymerization paragraph, assay not named",10 µM
